Patent US11786534B2 (TAIHO PHARMACEUTICAL CO., LTD., priority 2019, dated 2023)

Key:
Format in all cases: biochemical
[1] = target: T1, human EGFR (d746-750/C797S) (Homo sapiens, UniProt P00533, C797S/DEL746-750); test: Inhibitory activity against EGFR (d746-750/C797S) kinase
T1 construct: purchased SignalChem
Experimental: 3) Measurement of inhibitory activity against EGFR (d746-750/C797S) kinase
The compounds of the present invention were measured for their inhibitory activity against EGFR (d746-750/C797S) kinase activity.
The materials, measurement procedures and data analysis method used in this test are substantially the same as those shown in the section “Measurement of inhibitory activity aiainst EGFR (d746-750/T790M/C797S) kinase.” However, among the materials, the kinase protein used was a purified recombinant human EGFR (d746-750/C797S) protein purchased from SignalChem, while the kinase reaction buffer used was 13.5 mM Tris (pH 7.5) containing 2 mM dithiothreitol and 0.009% Tween-20. In the measurement procedures, the final concentration of ATP was set to 14 μM, the final concentration of maganesium chloride was set to 20 mM, the final concentration of manganese chloride was set to 12.5 mM, the incubation time for kinase reaction was set to 60 minutes, and the final concentration of EDTA used to stop the kinase reaction was set to 40 mM. Finally, data analysis was conducted to determine to IC50 value (nM) of each compound against EGFR (d746-750/C797S).
In accordance with the same procedures as shown in 3) in Test Example 1, the compounds of the present invention were measured for their inhibitory activity against EGFR (d746-750/C797S) kinase activity.

[2] = target: T2, human EGFR (d746-750/T790M/C797S) (Homo sapiens, UniProt P00533, C797S/DEL746-750/T790M); test: Inhibitory activity against EGFR (d746-750/T790M/C797S) kinase
T2 construct: made in house; host or cells: Sf9 insect cells, baculovirus
T2 sequence (P00533 with tags, fused parts or gaps DEL746-750/T790M/C797S): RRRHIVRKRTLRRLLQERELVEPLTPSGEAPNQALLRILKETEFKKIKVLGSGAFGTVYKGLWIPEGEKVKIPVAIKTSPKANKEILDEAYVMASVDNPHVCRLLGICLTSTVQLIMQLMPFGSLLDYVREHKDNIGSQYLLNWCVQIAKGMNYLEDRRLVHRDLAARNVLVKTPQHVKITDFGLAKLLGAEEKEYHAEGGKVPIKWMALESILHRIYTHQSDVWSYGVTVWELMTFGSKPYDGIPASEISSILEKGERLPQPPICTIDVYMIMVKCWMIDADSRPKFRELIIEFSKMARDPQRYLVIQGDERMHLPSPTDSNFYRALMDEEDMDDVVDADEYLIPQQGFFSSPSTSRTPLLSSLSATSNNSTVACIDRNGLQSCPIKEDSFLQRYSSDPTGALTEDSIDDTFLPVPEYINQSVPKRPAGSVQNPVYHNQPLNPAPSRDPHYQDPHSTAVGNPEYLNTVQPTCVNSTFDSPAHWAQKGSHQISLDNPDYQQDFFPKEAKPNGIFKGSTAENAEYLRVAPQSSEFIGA
Experimental: 1) Measurement of inhibitory activity against EGFR (d746-750/T790M/C797S) kinase
The compounds of the above examples and comparative examples were measured for their inhibitory activity against EGFR (d746-750/T790M/C797S) kinase activity. Among the materials required for measurement of this inhibitory activity, the kinase protein (SEQ ID NO: 1) used was prepared as follows: the cytoplasmic domain of human EGFR (d746-750/T790M/C797S) fused at the ammo terminal end with a glutathione-S-transferase (GST) tag was expressed M insect cells (Sf9) by the baculovirus expression system and then purified an a glutathione sepharose column. For use as a substrate peptide, a peptide biotinylated at the N-terminal end (biotin -EEPLYWSFPAKKK) was synthesized by reference to Perkin Elmer LabChip® series reagent FL-Peptide 22.
Procedures for measurement of the inhibitory activity are as follows. First, the compounds of the present invention were each dissolved in dimethyl sulfoxide (DMSO), and their serial dilutions were then prepared with DMSO. Secondly, each compound serial dilution (final concentration of DMSO during kinase reaction: 2.5%) or DMSO (final concentration: 2.5%) was mixed with a solution containing the substrate peptide (final concentration: 250 nM), magnesium chloride (final concentration: 10 mM), manganese chloride (final concentration: 10 mM) and ATP (final concentration: 6 μM) in a kinase reaction buffer (Carna Biosciences Inc., Japan), and the EGFR (d746-750/T790M/C797S) protein was further added thereto, followed by incubation at 25° C. for 120 minutes to cause kinase reaction. To the reaction solution, EDTA was added to give a final concentration of 24 mM to thereby stop the reaction, followed by addition of a phospholylated tyrosine detection solution containing europium-labeled anti-phosphorylated tyrosine antibody PT66 (Perkin Elmer) and SureLight APC-SA (Perkin Elmer). The reaction solution was allowed to stand at room temperature for 2 hours or longer. As a background, DMSO was used instead of each compound solution in .DMSO, and EDIA was added prior to the addition of the EGFR EGFR (d746-750/T790M/C797S) protein, followed by incubation at 25° C. for 120 minutes. The same detection solution was also added to this reaction solution, which was then allowed to stand for 2 hours or longer. Finally, all the test samples were measured with a PHERAstar FS reader (BMG LABTECH) for their fluorescence intensity at two wavelengths of 620 nm and 665 nm upon irradiation with an excitation light of 337 nm wavelength, and the ratio of fluorescence intensities at these two wavelengths was obtained as data for each compound.
Moreover, as control compounds, the above Comparative Example A (Example 3 in WO2013/118817) and Comparative Example B (Example 35 in WO2013/118817) known to have EGFR inhibitory activity were used.
In accordance with the same procedures as shown in 1) in Test Example 1, the compounds of the above examples were measured for their inhibitory activity against EGFR (d746-750/T790M/C797S) kinase activity.

human EGFR (WT) = target: T3, human EGFR (WT) (Homo sapiens, UniProt P00533); test: Inhibitory activity against EGFR (WT) kinase
T3 construct: purchased Carna Biosciences Inc., Japan
T3 sequence (P00533 25-1210): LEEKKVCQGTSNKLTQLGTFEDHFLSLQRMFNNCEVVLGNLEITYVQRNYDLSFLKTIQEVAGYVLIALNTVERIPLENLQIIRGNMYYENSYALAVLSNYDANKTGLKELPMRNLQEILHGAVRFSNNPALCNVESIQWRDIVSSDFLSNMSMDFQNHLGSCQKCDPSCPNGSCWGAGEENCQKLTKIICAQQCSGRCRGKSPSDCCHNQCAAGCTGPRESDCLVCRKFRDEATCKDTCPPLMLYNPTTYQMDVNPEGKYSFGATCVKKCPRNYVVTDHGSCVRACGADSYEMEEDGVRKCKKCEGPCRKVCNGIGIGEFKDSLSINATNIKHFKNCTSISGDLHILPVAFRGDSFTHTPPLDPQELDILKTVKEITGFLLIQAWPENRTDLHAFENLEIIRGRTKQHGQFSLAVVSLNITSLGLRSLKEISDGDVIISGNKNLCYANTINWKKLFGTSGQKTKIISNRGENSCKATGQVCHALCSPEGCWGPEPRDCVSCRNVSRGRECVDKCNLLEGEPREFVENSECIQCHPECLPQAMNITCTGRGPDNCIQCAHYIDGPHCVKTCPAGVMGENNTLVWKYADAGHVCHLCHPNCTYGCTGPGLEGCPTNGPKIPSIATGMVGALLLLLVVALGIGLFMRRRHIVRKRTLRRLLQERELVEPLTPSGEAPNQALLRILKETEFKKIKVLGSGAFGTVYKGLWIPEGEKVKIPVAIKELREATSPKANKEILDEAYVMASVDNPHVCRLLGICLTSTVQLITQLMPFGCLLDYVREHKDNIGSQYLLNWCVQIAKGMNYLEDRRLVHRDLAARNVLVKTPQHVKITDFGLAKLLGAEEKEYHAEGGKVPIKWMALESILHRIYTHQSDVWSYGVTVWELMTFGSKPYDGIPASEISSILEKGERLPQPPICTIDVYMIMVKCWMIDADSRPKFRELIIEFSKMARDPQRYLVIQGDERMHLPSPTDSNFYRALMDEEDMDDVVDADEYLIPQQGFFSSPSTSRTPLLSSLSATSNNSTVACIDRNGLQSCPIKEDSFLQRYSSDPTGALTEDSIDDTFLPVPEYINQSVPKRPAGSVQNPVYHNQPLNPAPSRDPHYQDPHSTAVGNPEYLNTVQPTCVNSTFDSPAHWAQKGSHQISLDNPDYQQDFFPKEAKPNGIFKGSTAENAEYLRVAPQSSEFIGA
Experimental: The compounds of the present invention were measured for their inhibitory activity nainst EGFR (WT) kinase activity.
The materials, measurement procedures and data analysis method used in this test. are substantially the same as those shown in the section “Measurement of inhibitory activity against EGFR (d746-750/T790M/C797S) kinase.” However, among the materials, the kinase protein used was a purified recombinant human EGFR (WT) purchased from Carna Biosciences Inc., Japan. In the measurement procedures, the final concentration of ATP was set to 1.5 μM. Finally, data analysis was conducted to determine the IC50 value (nM) of each compound against EGFR (WT).
In accordance with the same procedures as shown in 5) in Test Example 1, the compounds of the present invention were measured for their inhibitory activity against. EGFR (WT) kinase activity.

[3] = target: T4, human EGFR (L858R/T790M/C797S) (Homo sapiens, UniProt P00533, C797S/L858R/T790M); test: Inhibitory activity against EGFR (L858R/T790M/C797S) kinase
T4 construct: made in house; host or cells: Sf9 insect cells, baculovirus
T4 sequence (P00533 with tags, fused parts or gaps T790M/C797S/L858R): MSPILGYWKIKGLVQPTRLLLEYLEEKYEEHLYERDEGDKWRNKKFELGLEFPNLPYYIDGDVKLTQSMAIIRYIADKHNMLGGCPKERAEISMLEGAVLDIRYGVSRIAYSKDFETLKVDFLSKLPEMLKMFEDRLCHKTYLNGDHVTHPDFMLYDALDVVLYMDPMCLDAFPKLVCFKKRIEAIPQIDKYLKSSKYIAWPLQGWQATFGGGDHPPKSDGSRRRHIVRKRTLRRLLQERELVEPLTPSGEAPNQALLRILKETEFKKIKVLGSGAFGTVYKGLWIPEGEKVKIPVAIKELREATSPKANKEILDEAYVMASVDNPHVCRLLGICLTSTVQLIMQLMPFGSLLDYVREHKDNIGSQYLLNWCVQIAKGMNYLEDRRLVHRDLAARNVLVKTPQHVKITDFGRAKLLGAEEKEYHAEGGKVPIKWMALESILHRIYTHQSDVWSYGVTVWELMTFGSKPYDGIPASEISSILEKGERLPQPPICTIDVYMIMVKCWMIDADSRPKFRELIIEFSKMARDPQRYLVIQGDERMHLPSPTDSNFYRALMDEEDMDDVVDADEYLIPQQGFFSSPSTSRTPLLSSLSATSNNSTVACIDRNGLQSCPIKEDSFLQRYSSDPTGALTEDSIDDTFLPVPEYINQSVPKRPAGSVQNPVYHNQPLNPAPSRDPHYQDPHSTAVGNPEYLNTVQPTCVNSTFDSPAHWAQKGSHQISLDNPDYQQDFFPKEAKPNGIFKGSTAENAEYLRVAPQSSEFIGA
Experimental: 2) Measurement of inhibitory activity against EGFR (L858R/T790M/C797S) kinase
The compounds of the presein invention were measured for their inhibitory activity against EGFR (L858R/T790M/C797S) kinase activity.
The materials, measurement procedures and data analysis method used in this test are substantially the same as those shown in the section “Measurement of inhibitory activity against EGFR (d746-750/T790M/C797S) kinase.” However, among the materials, the kinase protein (SEQ ID NO: 2) used was prepared as follows: the cytoplasmic domain of human EGFR (L858R/T790M/C797S) fused at the amino terminal end with a GST tag was expressed in insect cells (Sf9) by the baculovirus expression system and then purified on a glutathione sepharose column. In the measurement procedures, the final concentration of ATP was set to 0.5 μM. Finally, data analysis was conducted to determine the IC50 value (nM) of each compound against EGFR (L858R/T790M/C797S).
In accordance with the same procedures as shown in 2) in Test Example 1, the compounds of the present invention were measured for their inhibitory activity against EGFR (L858R/T790M/C797S) kinase activity.

human EGFR (L858R/C797S) = target: T5, human EGFR (L858R/C797S) (Homo sapiens, UniProt P00533, C797S/L858R); test: Inhibitory activity against EGFR (L858R/C797S) kinase
T5 construct: purchased SignalChem
T5 sequence (P00533 25-1210 C797S/L858R): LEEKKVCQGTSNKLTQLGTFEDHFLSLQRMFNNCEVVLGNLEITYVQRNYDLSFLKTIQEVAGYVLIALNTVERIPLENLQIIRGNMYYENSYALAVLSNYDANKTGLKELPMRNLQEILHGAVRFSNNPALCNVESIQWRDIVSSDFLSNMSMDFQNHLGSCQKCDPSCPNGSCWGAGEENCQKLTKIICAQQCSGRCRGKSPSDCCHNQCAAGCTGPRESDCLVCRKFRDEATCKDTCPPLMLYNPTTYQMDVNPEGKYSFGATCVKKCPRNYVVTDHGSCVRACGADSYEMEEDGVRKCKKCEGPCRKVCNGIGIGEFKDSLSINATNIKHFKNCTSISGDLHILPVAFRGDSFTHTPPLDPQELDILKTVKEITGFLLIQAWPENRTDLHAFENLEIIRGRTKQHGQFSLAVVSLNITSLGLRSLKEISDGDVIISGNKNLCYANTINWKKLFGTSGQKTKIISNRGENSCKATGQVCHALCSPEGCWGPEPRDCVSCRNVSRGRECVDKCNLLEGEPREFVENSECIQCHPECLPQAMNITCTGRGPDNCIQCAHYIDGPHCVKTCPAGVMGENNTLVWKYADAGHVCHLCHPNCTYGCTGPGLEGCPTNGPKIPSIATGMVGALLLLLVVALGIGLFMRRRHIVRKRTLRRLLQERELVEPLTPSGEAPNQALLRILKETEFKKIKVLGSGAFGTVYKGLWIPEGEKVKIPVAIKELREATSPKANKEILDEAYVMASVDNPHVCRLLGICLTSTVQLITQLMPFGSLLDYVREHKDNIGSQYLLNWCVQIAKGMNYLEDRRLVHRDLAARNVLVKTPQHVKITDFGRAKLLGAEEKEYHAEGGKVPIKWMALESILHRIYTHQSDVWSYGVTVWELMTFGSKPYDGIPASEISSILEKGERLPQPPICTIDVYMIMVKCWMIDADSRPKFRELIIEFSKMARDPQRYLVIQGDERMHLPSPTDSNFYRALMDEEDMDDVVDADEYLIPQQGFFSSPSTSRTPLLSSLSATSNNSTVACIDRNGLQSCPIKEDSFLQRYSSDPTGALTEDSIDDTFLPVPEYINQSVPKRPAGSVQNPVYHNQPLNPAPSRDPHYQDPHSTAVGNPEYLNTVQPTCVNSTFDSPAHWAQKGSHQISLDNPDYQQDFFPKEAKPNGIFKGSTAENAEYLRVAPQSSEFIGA
Experimental: 4) Measurement of inhibitory activity against EGFR (L858R/C797S) kinase
The compounds of the present invention were measured for their inhibitory activity aeainst EGFR (L858R/C797S) kinase activity.
The materials, measurement procedures and data analysis method used in this test are stibstantially the same as those shown in the section “Measurement of inhibitory activity against EGFR (d746-750/C797S) kinase.” However, among the materials, the kinase protein used was a purified recombinant human EGFR (C797S/L858R) protein purchased from SignalChem. In the measurement procedures, the final concentration of ATP was set to 4 μM, and the incubation time for kinase reaction was set to 90 minutes. Finally, data analysis was conducted determine the IC50 value (nM) of each compound against EGFR (L858R/C797S).
In accordance with the same procedures as shown in 4) in Test Example 1, the compounds of the present invention were measured for their inhibitor activity against. EGFR (L858R/C797S) kinase activity.

[4] = Test Example 1, Table 4, ATP 14 μM, 60 minutes
[5] = Test Example 1, Table 2, ATP 6 μM, 25° C., 120 minutes
[6] = Test Example 1, Table 6, ATP 1.5 μM
[7] = Test Example 1, Table 3, ATP 0.5 μM
[8] = Test Example 1, Table 5, ATP 4 μM, 90 minutes
[9] = Test Example 3, Table 10; same procedures as 3) in Test Example 1
[10] = Test Example 3, Table 8; same procedures as 1) in Test Example 1
[11] = Test Example 3, Table 12; same procedures as 5) in Test Example 1
[12] = Test Example 3, Table 9; same procedures as 2) in Test Example 1
[13] = Test Example 3, Table 11; same procedures as 4) in Test Example 1

T1 sequence (P00533 with tags, fused parts or gaps DEL746-750/C797S): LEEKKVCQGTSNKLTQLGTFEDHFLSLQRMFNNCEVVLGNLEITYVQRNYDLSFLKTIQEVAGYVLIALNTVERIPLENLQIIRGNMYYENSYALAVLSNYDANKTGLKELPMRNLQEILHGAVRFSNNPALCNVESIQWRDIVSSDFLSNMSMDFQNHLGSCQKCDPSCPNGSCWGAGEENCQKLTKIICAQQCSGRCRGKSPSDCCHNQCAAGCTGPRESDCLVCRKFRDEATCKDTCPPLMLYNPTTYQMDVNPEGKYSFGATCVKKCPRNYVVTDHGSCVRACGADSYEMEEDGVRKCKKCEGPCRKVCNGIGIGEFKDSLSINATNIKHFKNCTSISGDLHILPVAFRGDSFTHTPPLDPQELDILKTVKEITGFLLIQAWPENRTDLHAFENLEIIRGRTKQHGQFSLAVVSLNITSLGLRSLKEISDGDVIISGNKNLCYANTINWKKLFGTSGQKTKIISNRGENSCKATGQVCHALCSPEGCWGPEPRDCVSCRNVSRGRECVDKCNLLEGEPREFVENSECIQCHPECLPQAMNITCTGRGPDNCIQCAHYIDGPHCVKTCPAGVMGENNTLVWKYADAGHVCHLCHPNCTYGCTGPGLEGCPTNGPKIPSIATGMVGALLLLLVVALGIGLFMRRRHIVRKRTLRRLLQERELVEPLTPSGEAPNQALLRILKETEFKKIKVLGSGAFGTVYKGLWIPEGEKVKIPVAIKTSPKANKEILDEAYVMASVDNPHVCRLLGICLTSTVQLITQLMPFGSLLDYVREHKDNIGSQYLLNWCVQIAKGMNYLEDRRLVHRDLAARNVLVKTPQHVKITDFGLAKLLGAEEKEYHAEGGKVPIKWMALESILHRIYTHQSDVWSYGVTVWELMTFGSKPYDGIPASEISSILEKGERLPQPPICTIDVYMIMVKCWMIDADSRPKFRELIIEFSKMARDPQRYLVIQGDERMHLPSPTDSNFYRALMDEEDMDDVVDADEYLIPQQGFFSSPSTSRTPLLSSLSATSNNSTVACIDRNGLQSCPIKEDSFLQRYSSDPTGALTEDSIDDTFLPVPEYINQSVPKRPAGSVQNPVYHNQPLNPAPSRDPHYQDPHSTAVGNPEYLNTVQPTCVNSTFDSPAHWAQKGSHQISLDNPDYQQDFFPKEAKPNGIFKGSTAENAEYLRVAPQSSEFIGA

| IC50 [1, 4] | IC50 [2, 5] | IC50 (human EGFR (WT); [6]) | IC50 [3, 7] | IC50 (human EGFR (L858R/C797S); [8]) | IC50 [1, 9] | IC50 [2, 10] | IC50 (human EGFR (WT); [11]) | IC50 [3, 12] | IC50 (human EGFR (L858R/C797S); [13]) | Structure (SMILES) |
| --- | --- | --- | --- | --- | --- | --- | --- | --- | --- | --- |
| 0.83 nM | < 0.3 nM | 0.94 nM | 0.34 nM | 0.99 nM |  |  |  |  |  | C#Cc1c(-c2cnc3ccccc3c2)c2c(N)ncnc2n1C12CCC(NC(=O)c3ncccn3)(CC1)C2 [Example 51] |
| 1 nM | 0.36 nM | 2.9 nM | 0.38 nM | 1.5 nM |  |  |  |  |  | C#Cc1c(-c2cnc3ccccc3c2)c2c(N)ncnc2n1C12CCC(NCC#N)(CC1)C2 [Example 4, 2-((4-(4-Amino-6-ethynyl-5-(quinolin-3-yl)-7H-pyrrolo[2,3-d]pyrimidin-7-yl)bicyclo-[2.2.1]heptan-1-yl)amino)acetonitrile] |
|  |  |  |  |  | 0.3 nM | < 0.3 nM | 0.72 nM | < 0.3 nM | 0.48 nM | C#Cc1c(-c2cnc3ccccc3c2)c2c(N)ncnc2n1C12CCC(NC(=O)c3cccc[n+]3[O-])(CC1)C2 [Example 60, 2-((4-(4-Amino-6-ethynyl-5-(quinolin-3-yl)-7H-pyrrolo[2,3-d]pyrimidin-7-yl)bicyclo-[2.2.1]heptane-1-yl)carbamoyl)pyridine 1-oxide] |
| 0.4 nM | < 0.3 nM | 0.51 nM | 0.6 nM | 0.59 nM |  |  |  |  |  | C#Cc1c(-c2cnc3ccccc3c2)c2c(N)ncnc2n1C12CCC(NC(=O)c3cncn(C)c3=O)(CC1)C2 [Example 25, N-(4-(4-Amino-6-ethynyl-5-(quinolin-3-yl)-7H-pyrrolo[2,3-d]pyrimidin-7-yl)bicyclo-[2.2.1]heptan-1-yl)-1-methyl-6-oxo-1,6-dihydropyrimidine-5-carboxamide] |
| 0.89 nM | < 0.3 nM | 3.2 nM | 1.1 nM | 1.7 nM |  |  |  |  |  | C#Cc1c(-c2cnc3ccccc3c2)c2c(N)ncnc2n1C12CCC(NC(=O)COC)(CC1)C2 [Example 28, N-(4-(4-Amino-6-ethynyl-5-(quinolin-3-yl)-7H-pyrrolo[2,3-d]pyrimidin-7-yl)bicyclo-[2.2.1]heptan-1-yl)-2-methoxyacetamide] |

Further lines, the molecule ahead of its results:

| Structure (SMILES) | IC50 [1, 4] | IC50 [2, 5] | IC50 (human EGFR (WT); [6]) | IC50 [3, 7] | IC50 (human EGFR (L858R/C797S); [8]) | IC50 [1, 9] | IC50 [2, 10] | IC50 (human EGFR (WT); [11]) | IC50 [3, 12] | IC50 (human EGFR (L858R/C797S); [13]) |
| --- | --- | --- | --- | --- | --- | --- | --- | --- | --- | --- |
| C#Cc1c(-c2cnc3ccccc3c2)c2c(N)ncnc2n1C12CCC(NC(=O)c3cnc(CN(C)C)cn3)(CC1)C2 [Example 68, N-(4-(4-Amino-6-ethynyl-5-(quinolin-3-yl)-7H-pyrrolo[2,3-d]pyrimidin-7-yl)bicyclo-[2.2.1]heptan-1-yl)-5-((dimethylamino)methyl)pyrazine-2-carboxamide] |  |  |  |  |  | < 0.3 nM | < 0.3 nM | 0.43 nM | < 0.3 nM | 0.36 nM |
| C#Cc1c(-c2cnc3ccccc3c2)c2c(N)ncnc2n1C12CCC(NC(=O)c3ccnn3-c3ccccc3)(CC1)C2 [Example 26, N-(4-(4-Amino-6-ethynyl-5-(quinolin-3-yl)-7H-pyrrolo[2,3-d]pyrimidin-7-yl)bicyclo-[2.2.1]heptan-1-yl)-1-phenyl-1H-pyrazole-5-carboxamide] | 0.71 nM | < 0.3 nM | 2.1 nM | 0.62 nM | 0.84 nM |  |  |  |  |  |
| C#Cc1c(-c2cnc3ccccc3c2)c2c(N)ncnc2n1C12CCC(NC(=O)c3cnc(CO)cn3)(CC1)C2 [Example 66, N-(4-(4-Amino-6-ethynyl-5-(quinolin-3-yl)-7H-pyrrolo[2,3-d]pyrimidin-7-yl)bicyclo-[2.2.1]heptan-1-yl)-5-(hydroxymethyl)pyrazine-2-carboxamide] |  |  |  |  |  | < 0.3 nM | < 0.3 nM | < 0.3 nM | < 0.3 nM | < 0.3 nM |
| C#Cc1c(-c2cnc3ccccc3c2)c2c(N)ncnc2n1C12CCC(N(C)C(=O)c3ncco3)(CC1)C2 [Example 58, N-[4-(4-Amino-6-ethynyl-5-quinolin-3-ylpyrrolo[2,3-d]pyrimidin-7-yl)-1-bicyclo-[2.2.1]heptan-1-yl]-N-methyloxazole-2-carboxamide] | 2.2 nM | < 0.3 nM | 3.9 nM | 1.5 nM | 3.4 nM |  |  |  |  |  |
| C#Cc1c(-c2cnc3ccccc3c2)c2c(N)ncnc2n1C12CCC(NC(=O)c3cc(S(C)(=O)=O)ccn3)(CC1)C2 [Example 30, N-(4-(4-Amino-6-ethynyl-5-(quinolin-3-yl)-7H-pyrrolo[2,3-d]pyrimidin-7-yl)bicyclo-[2.2.1]heptan-1-yl)-4-(methylsulfonyl)picolinamide] | 0.64 nM | < 0.3 nM | 1.9 nM | 0.33 nM | 1.2 nM |  |  |  |  |  |
